Values quoted from earlier work as cited in publication PMC8510358, “Common Shortcomings in Study on Radiopharmaceutical Design Research: A Case Study of ^99mTc-Labelled Methotrexate” (Molecules, 2021).

Test system: folate receptors
Parameters: method as in PMID 23851396
Details: in comparison to folic acid (FA); ref [3]

affinity to folate receptors: noticeably lower
SMILES: CN(Cc1cnc2nc(N)nc(N)c2n1)c1ccc(C(=O)N[C@@H](CCC(=O)O)C(=O)O)cc1 [MTX, Methotrexate]
